Source: patent US20240124460A1, “METHODS AND COMPOSITIONS FOR TARGETED PROTEIN DEGRADATION” (Ranok Therapeutics (Hangzhou) Co. Ltd., priority 2020, published 2024)

Assays:
[1] = target: T1, HSP90α protein (Homo sapiens, UniProt P07900); assay: HSP90α-binding FP (BODIPY) assay; conditions: FP competition with BODIPY-labeled RNK04010
T1 construct: purchased BPS Bioscience #50298
Summary of the method: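 Fluorescence polarization measured competition with N-terminal human HSP90α, using either FITC-geldanamycin or BODIPY-labelled triazolone RNK04010 as tracer (5 nM final each). Compounds were tested in 2.5-fold dilutions from 20 μM to 5.2 nM, with incubation at 25 °C for 120 min (FITC) or 300 min (BODIPY).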

[2] = target: MAPK7 (Homo sapiens, UniProt Q13164); assay: MAPK7 Western blot protein degradation assay in U-87 MG cells; format: cell-based; parameters: U-87 MG human glioblastoma cells, which express MAPK7; endogenous in cells; host or cells: U-87 MG; conditions: 48 hr
Sequence of MAPK7 (Q13164 whole entry): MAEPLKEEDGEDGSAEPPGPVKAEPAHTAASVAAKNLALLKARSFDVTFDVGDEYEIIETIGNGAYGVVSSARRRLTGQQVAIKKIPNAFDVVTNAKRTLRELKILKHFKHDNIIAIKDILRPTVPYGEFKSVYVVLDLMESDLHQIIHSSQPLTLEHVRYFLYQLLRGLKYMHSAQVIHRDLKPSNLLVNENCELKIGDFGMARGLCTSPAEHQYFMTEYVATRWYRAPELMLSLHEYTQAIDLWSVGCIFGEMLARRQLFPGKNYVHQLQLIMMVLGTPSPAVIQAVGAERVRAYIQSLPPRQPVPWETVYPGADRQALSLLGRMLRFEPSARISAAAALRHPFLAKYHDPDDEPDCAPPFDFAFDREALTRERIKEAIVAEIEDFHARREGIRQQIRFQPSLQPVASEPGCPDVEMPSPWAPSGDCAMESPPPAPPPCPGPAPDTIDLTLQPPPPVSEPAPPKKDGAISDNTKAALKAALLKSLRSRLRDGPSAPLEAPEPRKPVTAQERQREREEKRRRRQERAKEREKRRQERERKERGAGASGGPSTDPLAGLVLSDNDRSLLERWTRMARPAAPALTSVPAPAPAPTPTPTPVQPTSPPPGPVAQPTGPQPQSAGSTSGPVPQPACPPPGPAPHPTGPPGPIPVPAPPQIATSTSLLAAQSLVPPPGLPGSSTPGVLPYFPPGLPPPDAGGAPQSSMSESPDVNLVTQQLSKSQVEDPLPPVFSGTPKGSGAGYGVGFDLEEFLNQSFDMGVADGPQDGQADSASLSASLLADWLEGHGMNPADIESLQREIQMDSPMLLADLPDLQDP
Description: U-87 MG human glioblastoma cells were seeded in 6- or 12-well tissue culture plates, and after 1 hr, test compounds were added at various concentrations and incubated at 37° C./5% CO2 for 48 hr. Cells were then washed with cold PBS, aspirated and cold RIPA buffer containing a protease/phosphatase inhibitor cocktail was added to lyse cells. After centrifugation, the total protein concentrations of cell lysates were determined using the BCA protein assay. Samples were normalized for equivalent protein concentrations, 5×SDS-PAGE loading buffer added and denatured at 100° C. for 10 min. 20 μl of each sample/well was loaded on a SDS-PAGE gel and electrophoresed for 20 min at 80 V, then 120 V for 1.5 hr. Gels were then electroblotted to nitrocellulose membranes using a wet-transfer method at 250 mA for 2.5 hr. Membranes were incubated with blocking buffer for 1 hr and washed 3 times with TBST for 5 min. Membranes were then incubated with anti-MAPK7 (anti-ERK5; Cell Signaling Technology, #12950) and anti-3-Actin (Cell Signaling Technology, #3700) monoclonal antibodies diluted in blocking buffer at 4° C. overnight per the manufacturer's recommendations. After washing 3 times, blots were incubated with appropriately labeled secondary antibodies for 1 hr at room temperature and washed again. Fluorescence imaging and quantitation was performed using a LI-COR Odyssey. Results was analyzed using GraphPad Prism 7 software.

[3] = system: U-87 MG human glioblastoma; assay: U87 MG CCK-8 proliferation assay; format: cell-based; conditions: Homo sapiens, U-87 MG, 72 h, U-87 MG cells, read-out: U87MG CCK-8
Summary of the method: (§1)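 3-fold dilution series, 20 μM–1.02 nM; ATCC culture conditions; CCK-8 absorbance read-out; % inhibition = 100 − (D−B)/(S−B)×100, S = DMSO cells, B = medium + DMSO, no cells.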

[4] = system: MV-4-11 human acute myeloid leukemia; assay: MV-4-11 CCK-8 proliferation assay; format: cell-based; conditions: Homo sapiens, MV4-11; MV-4-11 cells, 72 hr
Summary of the method: as §1

[5] = system: ERBB2; assay: ERBB2 (HER2) flow cytometry protein degradation assay in BT-474 cells; format: cell-based, human; conditions: DC50, BT-474 cells, 24 hr
Description: To analyze total ERBB2 expression by flow cytometry, cells were detached with trypsin, washed, counted and treated with 10 μl/10^6 cells PE-conjugated, anti-ERBB2 monoclonal antibody (R&D Systems, #FAB1129P) for 30 min at 25° C. in dark. Cells were then washed, resuspended in 200 μl 1% paraformaldehyde and analyzed by flow cytometry.
% Inhibition=100−(D−B)/(S−B)*100%. • S: Fluorescence intensity of cells with antibody • D: Fluorescence intensity of compound-treated cells with antibody • B: Fluorescence intensity of cells without antibody

| SMILES | IC50 [1] | MAPK7 degradation (30 nM) [2] | MAPK7 degradation (100 nM) [2] | MAPK7 degradation (300 nM) [2] | MAPK7 degradation (1000 nM) [2] | EC50 [3] | EC50 [4] | ERBB2 degradation [5] |
| --- | --- | --- | --- | --- | --- | --- | --- | --- |
| CCOc1cc(N2CCC(C(=O)N3CCC(CN4CCN(Cc5ccc(-n6c(O)nnc6-c6ccc(O)cc6O)cc5)CC4)CC3)CC2)ccc1Nc1ncc2c(n1)N(C)c1ccccc1C(=O)N2C [Compound 021, 2-((4-(4-(4-((4-(4-(3-(2,4-dihydroxyphenyl)-5-hydroxy-4H-1,2,4-triazol-4-yl)benzyl)piperazin-1-yl)methyl)piperidine-1-carbonyl)piperidin-1-yl)-2-ethoxyphenyl)amino)-5,11-dimethyl-5,11-dihydro-6H-benzo[e]pyrimido[5,4-b][1,4]diazepin-6-one] | 100 to 1000 nM | C (< 33% degradation) | C (< 33% degradation) | C (< 33% degradation) | C (< 33% degradation) | > 1000 nM | 100 to 1000 nM | – |
| CCOc1cc(N2CCC(C(=O)N3CCN(Cc4ccc(-n5c(O)nnc5-c5cc(C(C)C)c(O)cc5O)cc4)CC3)CC2)ccc1Nc1ncc2c(n1)N(C)c1ccccc1C(=O)N2C.Cl [Compound 043, 2-((4-(4-(4-(4-(3-(2,4-dihydroxy-5-isopropylphenyl)-5-hydroxy-4H-1,2,4-triazol-4-yl)benzyl)piperazine-1-carbonyl)piperidin-1-yl)-2-ethoxyphenyl)amino)-5,11-dimethyl-5,11-dihydro-6H-benzo[e]pyrimido[5,4-b][1,4]diazepin-6-one] | – | C (< 33% degradation) | B (33-66% degradation) | A (>66% degradation) | A (>66% degradation) | – | – | B (DC50 = 100-1000 nM) |
| CCOc1cc(N2CCC(C(=O)N3CCC(Cc4ccc(CN(C)Cc5ccc(-n6c(C(=O)NCC(F)(F)F)nnc6-c6cc(C(C)C)c(O)cc6O)cc5)cn4)CC3)CC2)ccc1Nc1ncc2c(n1)N(C)c1ccccc1C(=O)N2C [Compound 057, 5-(2,4-dihydroxy-5-isopropylphenyl)-4-(4-((((6-((1-(1-(4-((5,11-dimethyl-6-oxo-6,11-dihydro-5H-benzo[e]pyrimido[5,4-b][1,4]diazepin-2-yl)amino)-3-ethoxyphenyl)piperidine-4-carbonyl)piperidin-4-yl)methyl)pyridin-3-yl)methyl)(methyl)amino)methyl)phenyl)-N-(2,2,2-trifluoroethyl)-4H-1,2,4-triazole-3-carboxamide] | 100 to 1000 nM | – | – | – | – | 100 to 1000 nM | < 100 nM | B (DC50 = 100-1000 nM) |
| CCOc1cc(N2CCC(C(=O)NCCOCCOc3ccc(Nc4ccc(-n5nc(C(F)(F)F)c6c5CC(C)(C)CC6=O)cc4C(N)=O)cc3)CC2)ccc1Nc1ncc2c(n1)N(C)c1ccccc1C(=O)N2C [Compound 065, N-(2-(2-(4-((2-carbamoyl-4-(6,6-dimethyl-4-oxo-3-(trifluoromethyl)-4,5,6,7-tetrahydro-1H-indazol-1-yl)phenyl)amino)phenoxy)ethoxy)ethyl)-1-(4-((5,11-dimethyl-6-oxo-6,11-dihydro-5H-benzo[e]pyrimido[5,4-b][1,4]diazepin-2-yl)amino)-3-ethoxyphenyl)piperidine-4-carboxamide] | > 1000 nM | – | – | – | – | > 1000 nM | > 1000 nM | C (DC50 > 1000 nM) |
| CCOc1cc(N2CCC(C(=O)N3CCC(CN4CCN(CCCOc5ccc(Nc6ccc(-n7nc(C(F)(F)F)c8c7CC(C)(C)CC8=O)cc6C(N)=O)cc5)CC4)CC3)CC2)ccc1Nc1ncc2c(n1)N(C)c1ccccc1C(=O)N2C [Compound 066] | > 1000 nM | – | – | – | – | > 1000 nM | > 1000 nM | C (DC50 > 1000 nM) |
| CCOc1cc(N2CCC(C(=O)N3CCC(CN4CCN(Cc5ccc(-n6c(O)nnc6-c6cc(CC)c(O)cc6O)cc5)CC4)CC3)CC2)ccc1Nc1ncc2c(n1)N(S(C)(=O)=O)c1ccccc1C(=O)N2C [Compound 070, 2-((2-ethoxy-4-(4-(4-((4-(4-(3-(5-ethyl-2,4-dihydroxyphenyl)-5-hydroxy-4H-1,2,4-triazol-4-yl)benzyl)piperazin-1-yl)methyl)piperidine-1-carbonyl)piperidin-1-yl)phenyl)amino)-5-methyl-11-(methylsulfonyl)-5,11-dihydro-6H-benzo[e]pyrimido[5,4-b][1,4]diazepin-6-one] | 100 to 1000 nM | – | – | – | – | 100 to 1000 nM | < 100 nM | B (DC50 = 100-1000 nM) |
| CCOc1cc(N2CCC(C(=O)N3CCC(CN4CCN(Cc5ccc(-n6c(C(=O)NC7CC7)nnc6-c6cc(CC)c(O)cc6O)cc5)CC4)CC3)CC2)ccc1Nc1ncc2c(n1)N(S(C)(=O)=O)c1ccccc1C(=O)N2C [Compound 075, N-cyclopropyl-4-(4-((4-((1-(1-(3-ethoxy-4-((5-methyl-11-(methylsulfonyl)-6-oxo-6,11-dihydro-5H-benzo[e]pyrimido[5,4-b][1,4]diazepin-2-yl)amino)phenyl)piperidine-4-carbonyl)piperidin-4-yl)methyl)piperazin-1-yl)methyl)phenyl)-5-(5-ethyl-2,4-dihydroxyphenyl)-4H-1,2,4-triazole-3-carboxamide] | < 100 nM | – | – | – | – | < 100 nM | < 100 nM | B (DC50 = 100-1000 nM) |
| CCOc1cc(N2CCC(C(=O)N3CCC(CN4CCN(Cc5ccc(-n6c(C(=O)NC(C)C)nnc6-c6cc(CC)c(O)cc6O)cc5)CC4)CC3)CC2)ccc1Nc1ncc2c(n1)N(S(C)(=O)=O)c1ccccc1C(=O)N2C [Compound 098, 4-(4-((4-((1-(1-(3-ethoxy-4-((5-methyl-11-(methylsulfonyl)-6-oxo-6,11-dihydro-5H-benzo[e]pyrimido[5,4-b][1,4]diazepin-2-yl)amino)phenyl)piperidine-4-carbonyl)piperidin-4-yl)methyl)piperazin-1-yl)methyl)phenyl)-5-(5-ethyl-2,4-dihydroxyphenyl)-N-isopropyl-4H-1,2,4-triazole-3-carboxamide] | < 100 nM | – | – | – | – | < 100 nM | < 100 nM | B (DC50 = 100-1000 nM) |
| CCOc1cc(N2CCC(C(=O)N3CCC(CN4CCN(Cc5ccc(-n6c(C(=O)N[C@H](C)C(F)(F)F)nnc6-c6cc(CC)c(O)cc6O)cc5)CC4)CC3)CC2)ccc1Nc1ncc2c(n1)N(S(C)(=O)=O)c1ccccc1C(=O)N2C [Compound 123, (R)-4-(4-((4-((1-(1-(3-ethoxy-4-((5-methyl-11-(methylsulfonyl)-6-oxo-6,11-dihydro-5H-benzo[e]pyrimido[5,4-b][1,4]diazepin-2-yl)amino)phenyl)piperidine-4-carbonyl)piperidin-4-yl)methyl)piperazin-1-yl)methyl)phenyl)-5-(5-ethyl-2,4-dihydroxyphenyl)-N-(1,1,1-trifluoropropan-2-yl)-4H-1,2,4-triazole-3-carboxamide] | 100 to 1000 nM | – | – | – | – | 100 to 1000 nM | < 100 nM | B (DC50 = 100-1000 nM) |
| CCOc1cc(N2CCC(C(=O)N3CCC(CN4CCN(Cc5ccc(-n6c(C(=O)N[C@@H](C)C(F)(F)F)nnc6-c6cc(CC)c(O)cc6O)cc5)CC4)CC3)CC2)ccc1Nc1ncc2c(n1)N(S(C)(=O)=O)c1ccccc1C(=O)N2C [Compound 124, (S)-4-(4-((4-((1-(1-(3-ethoxy-4-((5-methyl-11-(methylsulfonyl)-6-oxo-6,11-dihydro-5H-benzo[e]pyrimido[5,4-b][1,4]diazepin-2-yl)amino)phenyl)piperidine-4-carbonyl)piperidin-4-yl)methyl)piperazin-1-yl)methyl)phenyl)-5-(5-ethyl-2,4-dihydroxyphenyl)-N-(1,1,1-trifluoropropan-2-yl)-4H-1,2,4-triazole-3-carboxamide] | 100 to 1000 nM | – | – | – | – | 100 to 1000 nM | < 100 nM | B (DC50 = 100-1000 nM) |
